Reference: US8455688B2, “HDAC inhibitors” (Lixte Biotechnology, Inc., priority 2007, dated 2013)
≈ marks a conversion by molar mass, not a printed value. Entries after “also recorded” stand apart in the source; their conditions may differ. Like-named read-outs stand apart in the source and are kept apart here.

Tests used:
C. neoformans = assay: Broth dilution antifungal susceptibility testing, C. neoformans; format: cell-based; settings: Cryptococcus neoformans, 50% reduction in turbidity, read-out: minimum inhibitory concentration (MIC)
Outline: (§1)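 Clinical isolates tested by NCCLS M27-A2 (yeasts) and M38-A (moulds) broth dilution in RPMI-1640 with glutamine, without bicarbonate, at 35° C for 24 and 48 hours. Compound dissolved in DMSO, tested at 0.125-64 μg/ml. MIC read at the first 24-hour interval with growth in the drug-free control.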

cell line U-87 = assay: Activity against the cell line U-87; format: cell-based, human; settings: potency on an equimolar basis
C. albicans = assay: Broth dilution antifungal susceptibility testing, C. albicans; format: cell-based, Candida albicans; settings: Candida albicans, 50% reduction in turbidity, read-out: minimum inhibitory concentration (MIC)
Outline: as §1

CP Control = assay: Broth dilution antifungal susceptibility testing, CP Control; format: cell-based; settings: read-out: minimum inhibitory concentration (MIC)
Outline: as §1

C. glabrata = assay: Broth dilution antifungal susceptibility testing, C. glabrata; format: cell-based, Candida glabrata; settings: Nakaseomyces glabratus, 50% reduction in turbidity, read-out: minimum inhibitory concentration (MIC)
Outline: as §1

S. apiospermum = assay: Broth dilution antifungal susceptibility testing, S. apiospermum; format: cell-based, Pseudallescheria boydii; settings: Scedosporium apiospermum, 80% inhibition, read-out: minimum inhibitory concentration (MIC)
Outline: as §1

R. arrhizus = assay: Broth dilution antifungal susceptibility testing, R. arrhizus; format: cell-based, Rhizopus oryzae; settings: Rhizopus arrhizus, 80% inhibition, read-out: minimum inhibitory concentration (MIC)
Outline: as §1

GBM xenograft = GBM xenograft tumor volume in SCID mice; format: in vivo
A. fumigatus = assay: Broth dilution antifungal susceptibility testing, A. fumigatus; format: cell-based, Aspergillus fumigatus; settings: Aspergillus fumigatus, 80% inhibition, read-out: minimum inhibitory concentration (MIC)
Outline: as §1

T. rubrum = assay: Broth dilution antifungal susceptibility testing, T. rubrum; format: cell-based, Trichophyton rubrum; settings: Trichophyton rubrum, 80% inhibition, read-out: minimum inhibitory concentration (MIC)
Outline: as §1

F. solani = assay: Broth dilution antifungal susceptibility testing, F. solani; format: cell-based; settings: Fusarium solani, 80% inhibition, read-out: minimum inhibitory concentration (MIC)
Outline: as §1

U87 GBM xenografts = assay: Inhibition of U87 GBM xenografts; settings: in vivo

Compound: O=C(CCCCCNC(=O)c1ccccc1S)Nc1cccnc1 [Compound 205, 2-Mercapto-N-[5-(pyridin-3-ylcarbamoyl)pentyl]benzamide]
- MIC (C. neoformans; 24 h, isolate 07-2665, 24 hours): 32 µg/mL (≈ 93.2 µM)
- MIC (C. neoformans; 24 h, isolate 07-2737, 24 hours): 32 µg/mL (≈ 93.2 µM)
- MIC (C. neoformans; 24 h, isolate 07-2829, 24 hours): 32 µg/mL (≈ 93.2 µM)
- MIC (C. neoformans; 48 h, isolate 07-2665, 48 hours): 32 µg/mL (≈ 93.2 µM)
- MIC (C. neoformans; 48 h, isolate 07-2737, 48 hours): 32 µg/mL (≈ 93.2 µM)
- MIC (C. neoformans; 48 h, isolate 07-2829, 48 hours): 32 µg/mL (≈ 93.2 µM)
- activity against the cell line U-87 (cell line U-87): most potent on an equimolar basis
- MIC (C. albicans; 24 h, isolate 07-3006, 24 hours): 32 µg/mL (≈ 93.2 µM)
- MIC (C. albicans; 24 h, isolate 07-3011, 24 hours): 32 µg/mL (≈ 93.2 µM)
- MIC (C. albicans; 24 h, isolate 07-3012, 24 hours): 32 µg/mL (≈ 93.2 µM)
- MIC (C. albicans; 48 h, isolate 07-3006, 48 hours): 64 µg/mL (≈ 186 µM)
- MIC (C. albicans; 48 h, isolate 07-3011, 48 hours): > 64 µg/mL
- MIC (C. albicans; 48 h, isolate 07-3012, 48 hours): 64 µg/mL (≈ 186 µM)
- MIC (CP Control; 24 hours): 32 µg/mL (≈ 93.2 µM)
- MIC (CP Control; 48 hours): 32 µg/mL (≈ 93.2 µM)
- MIC (C. glabrata; 24 h, isolate 07-2964, 24 hours): 32 µg/mL (≈ 93.2 µM)
- MIC (C. glabrata; 24 h, isolate 07-2965, 24 hours): 32 µg/mL (≈ 93.2 µM)
- MIC (C. glabrata; 24 h, isolate 07-3013, 24 hours): 32 µg/mL (≈ 93.2 µM)
- MIC (C. glabrata; 48 h, isolate 07-2964, 48 hours): 64 µg/mL (≈ 186 µM)
- MIC (C. glabrata; 48 h, isolate 07-2965, 48 hours): 64 µg/mL (≈ 186 µM)
- MIC (C. glabrata; 48 h, isolate 07-3013, 48 hours): 64 µg/mL (≈ 186 µM)
- MIC (S. apiospermum; 24 h, isolate 07-1333, 24 hours): 8 µg/mL (≈ 23.3 µM)
- MIC (S. apiospermum; 24 h, isolate 07-1502, 24 hours): 32 µg/mL (≈ 93.2 µM)
- MIC (S. apiospermum; 24 h, isolate 07-1601, 24 hours): 2 µg/mL (≈ 5.82 µM)
- MIC (S. apiospermum; 48 h, isolate 07-1333, 48 hours): 16 µg/mL (≈ 46.6 µM)
- MIC (S. apiospermum; 48 h, isolate 07-1502, 48 hours): 64 µg/mL (≈ 186 µM)
- MIC (S. apiospermum; 48 h, isolate 07-1601, 48 hours): 4 µg/mL (≈ 11.6 µM)
- MIC (R. arrhizus; 24 h, isolate 07-1870, 24 hours): > 64 µg/mL
- MIC (R. arrhizus; 24 h, isolate 07-2044, 24 hours): 64 µg/mL (≈ 186 µM)
- MIC (R. arrhizus; 24 h, isolate 07-2078, 24 hours): 64 µg/mL (≈ 186 µM)
- MIC (R. arrhizus; 48 h, isolate 07-1870, 48 hours): > 64 µg/mL
- MIC (R. arrhizus; 48 h, isolate 07-2044, 48 hours): 64 µg/mL (≈ 186 µM)
- MIC (R. arrhizus; 48 h, isolate 07-2078, 48 hours): > 64 µg/mL
- activity relative to an equimolar dose of SAHA (GBM xenograft; GBM xenograft, subcutaneous): more active than, an equimolar dose of SAHA
- inhibition of GBM xenograft tumor volume (GBM xenograft; tumor cells implanted subcutaneously, 0, 7, 14, 21 and 28 days): inhibited the growth of GBM xenograft tumor volume; also recorded: active
- MIC (A. fumigatus; 24 h, isolate 05-388, 24 hours): 16 µg/mL (≈ 46.6 µM)
- MIC (A. fumigatus; 24 h, isolate 06-4126, 24 hours): 16 µg/mL (≈ 46.6 µM)
- MIC (A. fumigatus; 24 h, isolate 07-2039, 24 hours): 8 µg/mL (≈ 23.3 µM)
- MIC (A. fumigatus; 48 h, isolate 05-388, 48 hours): > 64 µg/mL
- MIC (A. fumigatus; 48 h, isolate 06-4126, 48 hours): > 64 µg/mL
- MIC (A. fumigatus; 48 h, isolate 07-2039, 48 hours): > 64 µg/mL
- MIC (T. rubrum; 24 h, isolate 07-1743, 24 hours): 16 µg/mL (≈ 46.6 µM)
- MIC (T. rubrum; 24 h, isolate 07-2055, 24 hours): 8 µg/mL (≈ 23.3 µM)
- MIC (T. rubrum; 48 h, isolate 07-1743, 48 hours): 32 µg/mL (≈ 93.2 µM)
- MIC (T. rubrum; 48 h, isolate 07-2055, 48 hours): 16 µg/mL (≈ 46.6 µM)
- MIC (F. solani; 24 h, isolate 07-1399, 24 hours): 64 µg/mL (≈ 186 µM)
- MIC (F. solani; 24 h, isolate 07-1755, 24 hours): > 64 µg/mL
- MIC (F. solani; 24 h, isolate 07-1867, 24 hours): 32 µg/mL (≈ 93.2 µM)
- MIC (F. solani; 48 h, isolate 07-1399, 48 hours): > 64 µg/mL
- MIC (F. solani; 48 h, isolate 07-1755, 48 hours): > 64 µg/mL
- MIC (F. solani; 48 h, isolate 07-1867, 48 hours): 64 µg/mL (≈ 186 µM)
- inhibition of U87 GBM xenografts compared to control (U87 GBM xenografts): significant inhibition
